Data taken from paper PMC5771863 (Anesthesiology, 2018).
Where two headings read alike, the source gives them in different places.

Columns and labels:
Assay type in all cases: cell-based
[1] = target: T1, α1β3M286Cγ2L GABAA receptors (Homo sapiens, UniProt P14867+P28472, M311C); experiment: GABA EC5 enhancement by anesthetics, voltage clamp in Xenopus oocytes; conditions: β3M286C; […] ETO, 5 μM PRO, […] ALX
[2] = target: T2, α1β3F289Cγ2L GABAA receptors (Homo sapiens, UniProt P14867+P28472, F314C); conditions: β3F289C; […] ETO, 5 μM PRO, […] ALX
[3] = target: α1β3F293Cγ2L GABAA receptors (Homo sapiens, UniProt P14867+P28472, F318C); conditions: β3F293C; […] ETO, 5 μM PRO, […] ALX
[4] = target: α1β3T262Cγ2L GABAA receptors (Homo sapiens, UniProt P14867+P28472, T287C); experiment: Substituted cysteine modification-protection; conditions: pCMBS + maximal GABA, 10 μM ETO, 20 μM PRO
[5] = target: T1, α1β3M286Cγ2L GABAA receptors; conditions: β3M286C; pCMBS + maximal GABA; 10 μM ETO, 20 μM PRO, 10 μM ALX
[6] = target: T2, α1β3F289Cγ2L GABAA receptors; conditions: pCMBS + maximal GABA
[7] = target: α1β3V290Cγ2L GABAA receptors (Homo sapiens, UniProt P14867+P28472, V315C); conditions: α1β3V290Cγ2L; pCMBS + maximal GABA; 10 μM ETO, 20 μM PRO, 10 μM ALX
[8] = target: α1β3L297Cγ2L GABAA receptors (Homo sapiens, UniProt P14867+P28472, L322C); experiment: GABA EC5 enhancement by anesthetics, voltage clamp in Xenopus oocytes; conditions: β3L297C; […] ETO, 5 μM PRO, […] ALX
[9] = target: α1β3E298Cγ2L GABAA receptors (Homo sapiens, UniProt P14867+P28472, E323C); experiment: as above; conditions: β3E298C; […] ETO, 5 μM PRO, […] ALX
[10] = 10 μM ETO, 20 μM PRO, 10 μM ALX

T1 sequence (P14867 28-456): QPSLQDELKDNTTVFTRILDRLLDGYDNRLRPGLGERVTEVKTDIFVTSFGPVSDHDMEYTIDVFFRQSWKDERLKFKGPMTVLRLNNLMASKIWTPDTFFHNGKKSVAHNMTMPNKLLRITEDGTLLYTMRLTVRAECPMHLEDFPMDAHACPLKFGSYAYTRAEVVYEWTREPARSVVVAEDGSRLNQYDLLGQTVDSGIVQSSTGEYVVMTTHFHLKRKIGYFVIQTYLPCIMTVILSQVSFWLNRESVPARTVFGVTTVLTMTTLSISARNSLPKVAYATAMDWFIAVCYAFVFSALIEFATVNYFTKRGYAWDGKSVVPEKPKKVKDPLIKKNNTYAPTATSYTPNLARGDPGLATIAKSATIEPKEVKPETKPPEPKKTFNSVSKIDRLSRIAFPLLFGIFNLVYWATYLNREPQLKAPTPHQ
T1 sequence (P28472 26-473 M311C): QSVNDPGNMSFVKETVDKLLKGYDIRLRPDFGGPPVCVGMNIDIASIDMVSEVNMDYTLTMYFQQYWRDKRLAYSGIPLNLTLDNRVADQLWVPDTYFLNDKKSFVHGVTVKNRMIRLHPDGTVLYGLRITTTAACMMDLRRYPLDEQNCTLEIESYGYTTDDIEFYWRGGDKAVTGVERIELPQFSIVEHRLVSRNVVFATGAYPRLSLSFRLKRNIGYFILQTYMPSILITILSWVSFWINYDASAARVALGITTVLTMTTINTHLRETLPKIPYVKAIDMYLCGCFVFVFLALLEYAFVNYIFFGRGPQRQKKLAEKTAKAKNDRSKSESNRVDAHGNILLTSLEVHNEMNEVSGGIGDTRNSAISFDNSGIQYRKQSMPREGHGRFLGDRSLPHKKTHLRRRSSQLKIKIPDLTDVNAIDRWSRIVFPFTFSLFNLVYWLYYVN
T1 sequence (P18507 40-475 partner): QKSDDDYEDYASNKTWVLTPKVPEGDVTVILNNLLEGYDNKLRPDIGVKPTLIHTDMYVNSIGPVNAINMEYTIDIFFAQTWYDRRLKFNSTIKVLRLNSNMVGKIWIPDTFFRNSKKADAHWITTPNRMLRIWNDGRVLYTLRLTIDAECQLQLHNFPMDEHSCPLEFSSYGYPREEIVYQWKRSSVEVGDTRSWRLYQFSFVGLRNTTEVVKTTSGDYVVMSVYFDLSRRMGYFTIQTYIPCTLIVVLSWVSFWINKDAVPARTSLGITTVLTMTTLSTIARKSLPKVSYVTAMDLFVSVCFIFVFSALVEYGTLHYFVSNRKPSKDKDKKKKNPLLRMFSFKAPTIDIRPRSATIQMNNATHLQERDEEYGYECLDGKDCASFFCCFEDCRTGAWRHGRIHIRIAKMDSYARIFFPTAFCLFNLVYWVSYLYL
T2 sequence (P14867 28-456): as the sequence (P14867 28-456) above
T2 sequence (P28472 26-473 F314C): as the sequence (P28472 26-473 M311C) above, with C286M, F289C counted along it
T2 sequence (P18507 40-475 partner): as the sequence (P18507 40-475 partner) above
Chain of α1β3F293Cγ2L GABAA receptors (P14867 28-456): as the sequence (P14867 28-456) above
Chain of α1β3F293Cγ2L GABAA receptors (P28472 26-473 F318C): as the sequence (P28472 26-473 M311C) above, with C286M, F293C counted along it
Chain of α1β3F293Cγ2L GABAA receptors (P18507 40-475 partner): as the sequence (P18507 40-475 partner) above
Chain of α1β3V290Cγ2L GABAA receptors (P14867 28-456, stated change not applied): as the sequence (P14867 28-456) above
Chain of α1β3V290Cγ2L GABAA receptors (P28472 26-473 V315C): as the sequence (P28472 26-473 M311C) above, with C286M, V290C counted along it
Chain of α1β3V290Cγ2L GABAA receptors (P18507 40-475 partner): as the sequence (P18507 40-475 partner) above
Chain of α1β3T262Cγ2L GABAA receptors (P14867 28-456): as the sequence (P14867 28-456) above
Chain of α1β3T262Cγ2L GABAA receptors (P28472 26-473 T287C): as the sequence (P28472 26-473 M311C) above, with T262C, C286M counted along it
Chain of α1β3T262Cγ2L GABAA receptors (P18507 40-475 partner): as the sequence (P18507 40-475 partner) above
Chain of α1β3E298Cγ2L GABAA receptors (P14867 28-456): as the sequence (P14867 28-456) above
Chain of α1β3E298Cγ2L GABAA receptors (P28472 26-473 E323C): as the sequence (P28472 26-473 M311C) above, with C286M, E298C counted along it
Chain of α1β3E298Cγ2L GABAA receptors (P18507 40-475 partner): as the sequence (P18507 40-475 partner) above
Chain of α1β3L297Cγ2L GABAA receptors (P14867 28-456): as the sequence (P14867 28-456) above
Chain of α1β3L297Cγ2L GABAA receptors (P28472 26-473 L322C): as the sequence (P28472 26-473 M311C) above, with C286M, L297C counted along it
Chain of α1β3L297Cγ2L GABAA receptors (P18507 40-475 partner): as the sequence (P18507 40-475 partner) above

In the case of `CC(C)c1cccc(C(C)C)c1O` [PRO, 2,6-diisopropylphenol], the “EC5 enhancement compared to wild-type” value [1] is reported as “reduced”, the “EC5 enhancement compared to wild-type” value [2] is reported as “reduced” and the “EC5 enhancement compared to wild-type” value [3] is reported as “reduced”. The “effect on apparent rate of pCMBS modification” value (“effect on apparent rate” below) [4] was “accelerated”, the “effect on apparent rate” value [5] was “block modification” and the “effect on apparent rate” value [6, 10] was “unaffected”. The “effect on apparent rate” value ([6]; 50 μM ETO, 100 μM PRO, 50 μM ALX) was “neither 100 μM PRO nor 50 μM ALX inhibited modification” and the “effect on apparent rate” value [7] was “strongly blocked”.
For `CCOC(=O)c1cncn1[C@H](C)c1ccccc1` [ETO, R-Etomidate], the “EC5 enhancement compared to wild-type” value [1] was “reduced”, the “EC5 enhancement compared to wild-type” value [2] was “reduced” and the “EC5 enhancement compared to wild-type” value [3] was “increased”. For the same compound, the “EC5 enhancement compared to wild-type” value [8] was “increased”, the “EC5 enhancement compared to wild-type” value [9] was “increased” and the “effect on apparent rate” value [4] was “unaffected”. The “effect on apparent rate” value [5] was “block modification”, the “effect on apparent rate” value [6, 10] was “weakly blocked” and the “effect on apparent rate” value [7] was “strongly blocked”.
